The experiment deals with NAMPT (Mus musculus, UniProt Q99KQ4). As to the kind of experiment: co-crystal structure. The experiment is classed as binding.
NAMPT, sequence (Q99KQ4 whole entry): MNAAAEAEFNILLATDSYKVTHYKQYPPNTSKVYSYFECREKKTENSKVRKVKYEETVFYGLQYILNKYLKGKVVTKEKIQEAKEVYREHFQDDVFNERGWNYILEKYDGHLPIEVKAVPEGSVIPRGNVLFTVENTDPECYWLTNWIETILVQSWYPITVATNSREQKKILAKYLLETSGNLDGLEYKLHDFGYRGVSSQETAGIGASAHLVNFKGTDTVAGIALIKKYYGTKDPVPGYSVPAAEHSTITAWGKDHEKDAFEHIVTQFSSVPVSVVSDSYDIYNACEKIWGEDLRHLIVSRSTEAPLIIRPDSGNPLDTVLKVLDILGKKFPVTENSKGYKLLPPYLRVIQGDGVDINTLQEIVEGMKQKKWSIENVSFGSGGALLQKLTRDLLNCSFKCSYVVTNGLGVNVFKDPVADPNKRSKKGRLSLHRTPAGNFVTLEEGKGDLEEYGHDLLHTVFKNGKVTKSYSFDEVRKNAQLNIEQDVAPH

Regarding `O=C(NCc1ccc([C@@H]2O[C@H](COP(=O)(O)O)[C@@H](O)[C@H]2O)cc1)Nc1ccc(S(=O)(=O)c2ccccc2)cc1` [9a, ((2R,3S,4R,5S)-3,4-Dihydroxy-5-(4-((3-(4-(phenylsulfonyl)phenyl)ureido)methyl)phenyl)tetrahydrofuran-2-yl)methyldihydrogenphosphate], the co-crystal structure entry is on record as “Compound 9a bound to dimeric NAMPT (PDB: 7Q8T)”.
